These results are taken from patent publication US8865756B2, “Inhibitors of HCV NS5A” (Presidio Pharmaceuticals, Inc., priority 2008, dated 2014).

The assay deals with HCV 1b_Huh-Luc/Neo-ET cell line persistently expressing a bicistronic genotype 1b replicon in Huh 7 cells. The experiment in a line: HCV replicon assay (luciferase readout). As to conditions: Hepatitis C virus, Huh-7, 72 h, read-out: Inhibition of HCV genotype 1b. In kind it is cell-based. In outline:
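EC50, determined repeatedly, comes from a four-parameter logistic fit of luciferase signal as percent of untreated control. Readout follows 72 h compound exposure, in triplicate, of the HCV 1b_Huh-Luc/Neo-ET replicon line.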
For orientation: Replicon systems follow genome replication, usually without infectious particles.

Consider `COC(=O)NC(C)(C)C(=O)N1CCC[C@H]1c1ncc(-c2ccc(C#Cc3ccc4nc([C@@H]5CCCN5C(=O)C(C)(C)NC(=O)OC)[nH]c4c3)cc2)[nH]1` [Compound 1050], for which the EC50 was in the range of 10 to 999 nM.
As to `COC(=O)N[C@H](C(=O)N[C@@H](C)c1ncc(-c2ccc(C#Cc3ccc(-c4cnc([C@H](C)NC(=O)[C@@H](NC(=O)OC)[C@@H](C)OC)[nH]4)cc3)cc2)[nH]1)[C@@H](C)OC` [Compound 952], the EC50 fell in the range of 1 to 9.9 nM.
The value for `CS(=O)(=O)N[C@@H](C(=O)N1CCC[C@H]1c1ncc(-c2ccc(C#Cc3ccc(-c4cnc([C@@H]5CCCN5C(=O)[C@H](NS(C)(=O)=O)c5ccccc5)[nH]4)cc3)cc2)[nH]1)c1ccccc1` [Compound 226] was < 1 nM; that for `CC(C)(C)OC(=O)N[C@@H](C(=O)N1CCC[C@H]1c1ncc(-c2ccc(C#Cc3ccc(-c4cnc([C@@H]5CCCN5C(=O)[C@H](NC(=O)OC(C)(C)C)c5ccccc5)[nH]4)cc3)cc2)[nH]1)c1ccccc1` [Compound 150] was < 1 nM.
For `COC(=O)N[C@H](C(=O)N1CCC[C@H]1c1ncc(C#Cc2ccc(-c3ccc4nc([C@@H]5CCCN5C(=O)[C@H](NC(=O)OC)c5ccccc5)[nH]c4c3)nc2)[nH]1)C(C)C` [Compound 1087], the EC50 was < 1 nM.
As for `COC(=O)N[C@H](C(=O)N1CCC[C@H]1c1ncc(-c2ccc(C#Cc3ccc(-c4cnc([C@@H]5CCCN5C(=O)[C@@H](c5ccccc5)N5CCOC5=O)[nH]4)cc3)cc2)[nH]1)C(C)C` [Compound 1007], the figure is < 1 nM; as for `COC(=O)N[C@H](C(=O)N[C@@H](C)c1ncc(-c2ccc(C#Cc3ccc(-c4cnc([C@@H]5CCCN5C(=O)[C@@H](NC(=O)OC)[C@@H](C)O)[nH]4)cc3)cc2)[nH]1)[C@@H](C)O` [Compound 291], < 1 nM.
As for `COC(=O)N[C@@H](C)C(=O)N1CCC[C@H]1c1ncc(-c2ccc(C#Cc3ccc4nc([C@@H]5CCCN5C(=O)[C@H](C)NC(=O)OC)[nH]c4c3)cc2)[nH]1` [Compound 1028], the figure is < 1 nM.
Turning to `O=C(Cc1cccnc1)N[C@@H](C(=O)N1CCC[C@H]1c1cc(-c2ccc(C#Cc3ccc(-c4cnc([C@@H]5CCCN5C(=O)[C@H](NC(=O)Cc5cccnc5)c5ccccc5)[nH]4)cc3)cc2)n[nH]1)c1ccccc1` [Compound 222], the EC50 was < 1 nM.
As to `COC(=O)N[C@@H](C(=O)N(C)[C@@H](C)c1ncc(-c2ccc(C#Cc3ccc(-c4cnc([C@@H]5CCCN5C(=O)[C@H](NC(=O)OC)c5ccccc5)[nH]4)cc3)cc2)[nH]1)c1ccccc1` [Compound 274], the EC50 is < 1 nM.
As for `CC(=O)N[C@@H](C(=O)N1CCC[C@H]1c1ncc(-c2ccc(C#Cc3ccc(-c4cnc([C@@H]5CCCN5C(=O)[C@H](NC(C)=O)c5ccccc5)[nH]4)cc3)cc2)[nH]1)c1ccccc1` [Compound 158], the EC50 is < 1 nM.
`O=C(N[C@@H](C(=O)N1CCC[C@H]1c1ncc(C#Cc2ccc(C#Cc3cnc([C@@H]4CCCN4C(=O)[C@H](NC(=O)N4CCOCC4)c4ccccc4)[nH]3)cc2)[nH]1)c1ccccc1)N1CCOCC1` [Compound 309]: the EC50 was < 1 nM.
Turning to `CC(C)[C@H](NC(=O)C1CC1)C(=O)N1CCC[C@H]1c1ncc(-c2ccc(C#Cc3ccc(-c4cnc([C@@H]5CCCN5C(=O)[C@@H](NC(=O)C5CC5)C(C)C)[nH]4)cc3)cc2)[nH]1` [Compound 170], the EC50 lay within 1 to 9.9 nM.
For the compound `CN1CCN(C(=O)N[C@@H](C(=O)N2CCC[C@H]2c2ncc(C#Cc3ccc(C#Cc4cnc([C@@H]5CCCN5C(=O)[C@H](NC(=O)N5CCN(C)CC5)c5ccccc5)[nH]4)cc3)[nH]2)c2ccccc2)CC1` [Compound 310], the EC50 was in the range of 1 to 9.9 nM.
For the compound `COC(=O)N[C@H](C(=O)N1CCC[C@H]1c1nc2ccc3cc(C#Cc4ccc(-c5cnc([C@@H]6CCCN6C(=O)[C@H](NC(=O)OC)c6ccccc6)[nH]5)cc4)ccc3c2[nH]1)C(C)C` [Compound 1093], the EC50 was < 1 nM.
The value for `COC(=O)N[C@@H](C(=O)N1CCC[C@H]1c1ncc(-c2ccc(C#Cc3ccc(-c4cnc([C@@H]5CCCN5C(=O)[C@H](NC(=O)N5CCS(=O)(=O)CC5)c5ccccc5)[nH]4)cc3)cc2)[nH]1)c1ccccc1` [Compound 253] was < 1 nM.
Turning to `O=C(N[C@@H](C(=O)N1CCC[C@H]1c1cc(-c2ccc(C#Cc3ccc(-c4cnc([C@@H]5CCCN5C(=O)[C@H](NC(=O)[C@@H]5CCCO5)c5ccccc5)[nH]4)cc3)cc2)n[nH]1)c1ccccc1)[C@@H]1CCCO1` [Compound 214], the EC50 is < 1 nM.
`O=C(N[C@@H](C(=O)N1CCC[C@H]1c1ncc(C#Cc2ccc(-c3ccc(-c4cnc([C@@H]5CCCN5C(=O)[C@H](NC(=O)N5CCOCC5)c5ccccc5)[nH]4)cc3)cc2)[nH]1)c1ccccc1)N1CCOCC1` [Compound 761]: the EC50 was < 1 nM.
Take `COC(=O)N[C@@H](C(=O)N1CCC[C@H]1c1ncc(-c2ccc(C#Cc3ccc(-c4cnc([C@@H]5CCCN5C(=O)[C@H](NC(=O)C5(O)CC5)c5ccccc5)[nH]4)cc3)cc2)[nH]1)c1ccccc1` [Compound 277]: the EC50 was < 1 nM.
For the compound `COC(=O)N[C@@H](C(=O)N1CCC[C@H]1c1ncc(-c2ccc(C#Cc3cnc([C@@H]4CCCN4C(=O)[C@@H](c4ccccc4)N(C)C)[nH]3)cc2)[nH]1)c1ccccc1` [Compound 128], the EC50 was < 1 nM.
`COC(=O)N[C@H](C(=O)N1CCC[C@H]1c1ncc(-c2ccc(C#Cc3ccc4nc([C@@H]5CCCN5C(=O)[C@@H](NC(=O)OC)C5CCOCC5)[nH]c4c3)cc2F)[nH]1)C1CCOCC1` [Compound 1070]: the EC50 was < 1 nM.
With `O=C(N[C@@H](C(=O)N1CCC[C@H]1c1cc(-c2ccc(C#Cc3ccc(-c4cnc([C@@H]5CCCN5C(=O)[C@H](NC(=O)N5CCOCC5)c5ccccc5)[nH]4)cc3)cc2)n[nH]1)c1ccccc1)N1CCOCC1` [Compound 220], the EC50 was < 1 nM.
Regarding `COC(=O)N[C@@H](C(=O)N1CCC[C@H]1c1ncc(C#Cc2ccc(C#Cc3cnc([C@@H]4CCCN4C(=O)[C@@H](c4ccccc4)N4CCOCC4)[nH]3)cc2)[nH]1)c1ccccc1` [Compound 313], the EC50 was < 1 nM.
As for `COC(=O)N[C@H](C(=O)N[C@H](c1ncc(-c2ccc(C#Cc3ccc(-c4cnc([C@@H]5CCCN5C(=O)[C@@H](NC(=O)OC)C(C)C)[nH]4)cc3)cc2)[nH]1)C(C)C)C(C)C` [Compound 276], the figure is 1 to 9.9 nM.
For `O=C([C@H](O)c1ccccc1)N1CCC[C@H]1c1ncc(-c2ccc(C#Cc3ccc(-c4cnc([C@@H]5CCCN5C(=O)[C@H](O)c5ccccc5)[nH]4)cc3)cc2)[nH]1` [Compound 157], the EC50 is < 1 nM.
For the compound `COC(=O)N[C@H](C(=O)N1CCC[C@H]1c1ncc(-c2ccc(C#Cc3ccc(-c4cnc([C@@H]5CCCN5C(=O)[C@@H](c5ccccc5)N5CCC(O)CC5)[nH]4)cc3)cc2)[nH]1)C(C)C` [Compound 956], the EC50 was < 1 nM.
Take `COC(=O)N[C@H](C(=O)N1CCC[C@H]1c1ncc(-c2ccc(C#Cc3ccc(-c4cnc([C@H](C)NC(=O)[C@H](C(C)C)N(C)C)[nH]4)cc3)cc2)[nH]1)C(C)C` [Compound 981]: the EC50 was in the range of 10 to 999 nM.
With `COC(=O)N[C@H](C(=O)N1CCC[C@H]1c1nc2ccc(C#Cc3ccc(-c4cnc([C@@H]5CCCN5C(=O)[C@H](NC(=O)OC)C(C)C)[nH]4)cc3)cc2[nH]1)C(C)C` [Compound 1053], the EC50 is < 1 nM.
The value for `COC(=O)N[C@@H](C(=O)N[C@@H](C)c1ncc(-c2ccc(C#Cc3ccc(-c4cnc([C@@H]5CCCN5C(=O)[C@H](NC(=O)OC)C(C)C)[nH]4)cc3)cc2)[nH]1)C(C)C` [Compound 290] was > 1000 nM.
The value for `COC(=O)N[C@H](C(=O)N1CCC[C@H]1c1ncc(-c2ccc(C#Cc3ccc4nc([C@@H]5CCCN5)[nH]c4c3)cc2)[nH]1)C(C)C` [Compound 1056] was 10 to 999 nM; that for `CC(C)[C@H](NC(=O)OC(C)(C)C)C(=O)N1CCC[C@H]1c1ncc(-c2ccc(C#Cc3ccc(-c4cnc([C@@H]5CCCN5C(=O)[C@@H](NC(=O)OC(C)(C)C)C(C)C)[nH]4)cc3)cc2)[nH]1` [Compound 165] was 10 to 999 nM; that for `O=C(N[C@@H](C(=O)N1CCC[C@H]1c1ncc(C#Cc2ccc(-c3ccc(-c4cnc([C@@H]5CCCN5C(=O)[C@H](NC(=O)C5CC5)c5ccccc5)[nH]4)cc3)cc2)[nH]1)c1ccccc1)C1CC1` [Compound 760] was < 1 nM.
As for `COC(=O)NC1(C(=O)N2CCC[C@H]2c2ncc(-c3ccc(C#Cc4ccc5nc([C@@H]6CCCN6C(=O)C6(NC(=O)OC)CCCC6)[nH]c5c4)cc3)[nH]2)CCCC1` [Compound 1044], the EC50 was in the range of 10 to 999 nM.
As for `O=C(N[C@@H](C(=O)N1CCC[C@H]1c1nc(-c2ccc3cc(C#Cc4cnc([C@@H]5CCCN5C(=O)[C@H](NC(=O)N5CC[C@H](O)C5)c5ccccc5)[nH]4)ccc3c2)c[nH]1)c1ccccc1)N1CC[C@H](O)C1` [Compound 806], the figure is 1 to 9.9 nM; as for `O=C(N[C@@H](C(=O)N1CCC[C@H]1c1ncc(-c2ccc(C#Cc3ccc(-c4cnc([C@@H]5CCCN5C(=O)[C@@H](c5ccccc5)N5CCCCC5)[nH]4)cc3)cc2)[nH]1)c1ccccc1)C1CC1` [Compound 208], < 1 nM.
As for `COC(=O)N[C@H](C(=O)N1CCC[C@H]1c1ncc(-c2ccc(C#Cc3ccc4nc([C@@H]5CCCN5C(=O)[C@@H](c5ccccc5)N(C)C)[nH]c4c3)cc2)[nH]1)C(C)C` [Compound 860], the EC50 is < 1 nM.
For `O=C(N[C@@H](C(=O)N1CCC[C@H]1C(=O)NCc1ccc(C#Cc2ccc(-c3cnc([C@@H]4CCCN4C(=O)[C@H](NC(=O)C4CC4)c4ccccc4)[nH]3)cc2)cc1)c1ccccc1)C1CC1` [Compound 190], the EC50 was < 1 nM.
As for `C[C@H](NC(=O)[C@@H]1CCCN1C(=O)[C@H](NC(=O)OC(C)(C)C)c1ccccc1)c1ccc(C#Cc2ccc(-c3cnc([C@@H]4CCCN4C(=O)[C@H](NC(=O)OC(C)(C)C)c4ccccc4)[nH]3)cc2)cc1` [Compound 169], the EC50 fell in the range of 1 to 9.9 nM.
Regarding `COC(=O)NC(C(=O)N1CCC[C@H]1c1ncc(-c2ccc(C#Cc3ccc(-c4cnc([C@@H]5CCCN5C(=O)[C@@H](NC(=O)OC)C(C)C)[nH]4)cc3)cc2)[nH]1)[C@@H](C)O` (stereo partly drawn) [Compound 971], the EC50 is < 1 nM.
